# Source: PubChem BioAssay (NCI)
# Several values for one entry are separate records, joined by “and”; a condition that tells them apart may be missing. Equal entries are not always repeated.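 Cells were grown in 96-well plates and exposed to each compound for 48 hours at five concentrations; endpoints were interpolated linearly between bracketing concentrations, or set to the highest concentration if not reached. Abbreviation: GI50, concentration required for 50% inhibition of growth. TGI marks complete inhibition of growth.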
# Columns and labels:
# Assay in all cases: NCI anticancer screen, dose series, 48 h
# TK-10 renal = test system: TK-10 renal
# CCRF-CEM leukemia = test system: CCRF-CEM leukemia
# EKVX NSCLC = test system: EKVX NSCLC
# U251 CNS = test system: U251 CNS
# NCI-H226 lung = test system: NCI-H226 lung
# M14 melanoma = test system: M14 melanoma
# NCI-H460 lung = test system: NCI-H460 lung
# SK-MEL-28 melanoma = test system: SK-MEL-28 melanoma
# MALME-3M melanoma = test system: MALME-3M melanoma
# SNB-75 CNS = test system: SNB-75 CNS
Structure (SMILES),TGI (TK-10 renal),TGI (CCRF-CEM leukemia),TGI (EKVX NSCLC),TGI (U251 CNS),TGI (NCI-H226 lung),TGI (M14 melanoma),TGI (NCI-H460 lung),TGI (SK-MEL-28 melanoma),TGI (MALME-3M melanoma),TGI (SNB-75 CNS),GI50 (TK-10 renal),GI50 (CCRF-CEM leukemia),GI50 (EKVX NSCLC),GI50 (U251 CNS),GI50 (NCI-H226 lung),GI50 (M14 melanoma),GI50 (NCI-H460 lung),GI50 (SK-MEL-28 melanoma),GI50 (MALME-3M melanoma),GI50 (SNB-75 CNS)
O=C(N[C@H]1CC2(C=C(I)C(=O)C(I)=C2)OC1=O)OCc1ccccc1,32.3 µM,8.64 µM,27.3 µM,31.5 µM,90.3 µM,31.2 µM,43 µM,33.5 µM,31.9 µM,38.2 µM,,,,,,,,,,
NC(=O)N1N=C2c3ccccc3OC[C@H]2[C@@H]1c1ccccc1,> 100 µM,> 100 µM,> 100 µM,28.5 µM,74.7 µM,5.59 µM,60.2 µM,> 100 µM,> 100 µM,> 91.7 µM,,,,,,,,,,
O=C(Cn1ccnc1[N+](=O)[O-])NCc1ccc(F)cc1,> 100 µM,> 100 µM,> 100 µM,> 100 µM,> 100 µM,> 100 µM,> 100 µM,> 100 µM,> 100 µM,> 100 µM,,,,,,,,,,
Nc1cccc(C(=O)/C=C/c2ccccc2O)c1,> 100 µM,> 100 µM,> 100 µM,> 100 µM,> 100 µM,> 100 µM,> 100 µM,> 100 µM,> 100 µM,> 100 µM,,,,,,,,,,
CCCCCCCC(=O)OC[n+]1cccc(-c2c(COC(=O)NC(C)C)c(COC(=O)NC(C)C)c3n2CCC3)c1,> 100 µM,> 84 µM,> 100 µM,> 100 µM,> 100 µM,> 100 µM,> 100 µM,> 100 µM,> 100 µM,> 100 µM,,,,,,,,,,
c1ccc2[nH]c(-c3cscn3)nc2c1,> 100 µM,> 100 µM,> 100 µM,> 100 µM,> 100 µM,> 100 µM,> 100 µM,> 100 µM,> 100 µM,> 100 µM,,,,,,,,,,
COc1cc([N+](=O)[O-])c(S(=O)(=O)O)cc1-[n+]1nc(C(=O)Nc2ccccc2)nn1-c1ccc([N+](=O)[O-])c(S(=O)(=O)[O-])c1,> 100 µM,> 100 µM,> 100 µM,> 100 µM,> 100 µM,> 100 µM,> 100 µM,> 100 µM,> 100 µM,> 100 µM,,,,,,,,,,
COc1ccc(-c2nn(-c3cccc(Cl)c3)cc2-c2c(C#N)c(=O)n3[nH]c(-c4ccc(C)o4)nc3c2C#N)cc1,> 50 µM,> 50 µM,40.8 µM,> 50 µM,> 50 µM,22.4 µM,> 50 µM,21.1 µM,41.1 µM,> 50 µM,12.4 µM,2.45 µM,1.54 µM,4.71 µM,7.35 µM,5.49 µM,6.38 µM,5.51 µM,7.88 µM,1.56 µM
CCCC/C=C1/CCC(CN(C)C)C1=O (stereo not drawn),2.51 µM,1.76 µM,4.48 µM,4.19 µM,22.8 µM,3.26 µM,26.8 µM,3.93 µM,4.07 µM,6.99 µM,,0.424 µM,2.14 µM,,,,9.87 µM,,,
O=S1(=O)CS(=O)(=O)OCCCCCO1,> 100 µM,> 100 µM,> 100 µM,> 100 µM,> 100 µM,> 100 µM,> 100 µM,> 100 µM,> 100 µM,> 100 µM,,,,,,,,,,
CC(=O)Nc1ccc2c(c1)[nH]c(=O)c1cc(Cl)ccc12,60.4 µM,13.4 µM,> 100 µM,> 100 µM,90.4 µM,> 100 µM,52.9 µM,> 100 µM,46.7 µM,> 100 µM,,,,,,,,,,
NCC[PH+](c1ccccc1)c1ccccc1.NCC[PH+](c1ccccc1)c1ccccc1.[Cl-].[Pt+4],> 100 µM,> 73.2 µM,> 100 µM,> 100 µM,> 100 µM,> 100 µM,> 100 µM,> 100 µM,> 100 µM,> 100 µM,> 100 µM,12.2 µM,> 100 µM,39.3 µM,> 100 µM,> 100 µM,84.5 µM,> 100 µM,> 100 µM,> 100 µM
CC(=O)O[C@H]1C(=O)[C@@]2(C)C([C@H](OC(=O)c3ccccc3)[C@]3(O)C[C@H](OC(=O)[C@H](O)[C@@H](NC(=O)c4ccc(Cl)cc4)c4ccccc4)C(C)=C1C3(C)C)C1(OC(C)=O)CO[C@@H]1C[C@@H]2O (stereo partly drawn),25 µM and 47.7 µM,52.2 µM,25 µM and > 100 µM,,25 µM,0.733 µM,25 µM and > 100 µM,25 µM,25 µM and 24.1 µM,0.603 µM and 0.178 µM,0.254 µM,,1.11 µM,,,,,,0.0599 µM,
COc1cc(-c2ccc[nH]2)[nH]c1/C=C1\N=C(C)C(C(=O)NC(C)C)=C1C,9.71 µM,32 µM,23.2 µM,13.3 µM,20.4 µM,4.4 µM,12.7 µM,19.8 µM,16.9 µM,17.2 µM,3.1 µM,1.77 µM,6.35 µM,2.59 µM,3.77 µM,1.97 µM,2.44 µM,7.17 µM,4.6 µM,4.94 µM
COc1ccc2cc1Oc1ccc(cc1)CC1c3c(cc(OC)c4c3Oc3cc5c(cc3O4)CCNC5C2)CCN1C (stereo not drawn),3.68 µM and 3.12 µM,3.61 µM,3.73 µM and 3.19 µM,3.2 µM,4.18 µM,6.83 µM and 3.25 µM,3.25 µM,3.5 µM and 3.54 µM,3.68 µM,3.06 µM,1.74 µM,,1.71 µM,1.68 µM,2.3 µM,1.73 µM,1.62 µM,1.84 µM,,1.68 µM
COc1ccc(C2=NOC3=c4ccccc4=CSC3=C2c2ccccc2)cc1,> 100 µM,> 100 µM,> 100 µM,> 100 µM,79.8 µM,> 100 µM,89 µM,> 100 µM,> 100 µM,> 100 µM,54 µM,21.7 µM,94 µM,25.2 µM,20.2 µM,26.3 µM,21.5 µM,37.7 µM,43.7 µM,> 100 µM
